Assay [1] relates to HEK293. The assay can be described thus: MTT assay, cytotoxicity to normal cell line. In kind it is cell-based, human. The settings on record: Homo sapiens, HEK293; MTT, 48 h drug exposure, mean ± SD; normal cell line. Here is the method: (§1) Human cancer cell lines BEL-7402, A549, MCF-7, PC-3M, and normal renal cell line HEK293 were bought from the BeNa Culture Collection (Beijing, China). BEL7402, A549, and PC-3M were cultured in RPMI 1640 medium (Gibco, Carlsbad, CA, USA). MCF-7 and HEK293 were cultured in the DMEM medium (Gibco, CA, USA). The medium was supplemented with 10% fetal bovine serum (FBS) (CLARK, San Diego, CA, USA), 100 U/mL penicillin, and 0.1 mg/mL streptomycin (Beyotime, Nanjing, China). The cells were incubated in 5% CO2 at 37 °C.
(§2) The MTT assay was employed to assess the inhibitory effect of each compound on cell growth. A549, PC-3M, MCF-7, BEL-7402, and HEK293 cells in the logarithmic growth phase were seeded in 96-well culture plates at an inoculum density of 5 × 10^4 cells/mL. After overnight incubation at 37 °C in a 5% CO2 atmosphere, the cells fully adhered to the surface. Different concentrations of sample solutions (0, 3.125, 6.25, 12.5, 25, 50, 100 μmol/L) were added (100 μL) to treat the cells. After 48 h of drug treatment, 10 μL of a 5 mg/mL MTT solution was added to each well and incubated for 4 h at 37 °C. The supernatant was then discarded, and 150 μL of DMSO was added to dissolve the formazan. The mixture was shaken at room temperature for 15 min, and the absorbance (D) value was measured at 490 nm using a Microplate Reader (HBS-ScanY, Nanjing, China). The drug IC50 values were calculated using GraphPad Prism (v10.0). Each cell viability experiment was performed in triplicate.
(Tetrazolium assays rely on reduction of a dye to a coloured formazan, in cell work by metabolically active cells.)

In assay [2] the test system is BEL-7402. The assay can be described thus: MTT assay, antiproliferative activity. In kind it is cell-based. The settings on record: Homo sapiens, 48 h drug exposure, mean ± SD. Here is the method:
as §1, §2

For assay [3], the system named is PC-3M. The assay can be described thus: MTT assay, antiproliferative activity. It counts as cell-based. Particulars: Homo sapiens, 48 h drug exposure, mean ± SD. Here is the method: as §1, §2
The subject of assay [4] is MCF-7. The assay can be described thus: MTT assay, antiproliferative activity. The settings on record: Homo sapiens, MCF7, 48 h drug exposure, mean ± SD. It counts as cell-based. As for the experimental part: as §1, §2
Assay [5] concerns A549. The assay can be described thus: MTT assay, antiproliferative activity. It counts as cell-based. The settings on record: Homo sapiens, 48 h drug exposure, mean ± SD. As for the experimental part: as §1, §2

For the compound `COc1ccc(-c2oc3c(CC=C(C)C)c(OC(=O)CCCCBr)cc(O)c3c(=O)c2O)cc1` [Compound 1], the IC50 in assay [1] worked out at 46.8 ± 1.82 µM; in assay [2], 47.8 ± 2.65 µM; in assay [3], 44.5 ± 2.15 µM; in assay [4], 25.8 ± 1.07 µM; in assay [5] it was 35.8 ± 3.57 µM.
As to `COc1ccc(-c2oc3c(CC=C(C)C)c(OC(=O)CCCCCCBr)cc(O)c3c(=O)c2O)cc1` [Compound 2], the IC50 in assay [1] was over 100 µM; in assay [2], 40.6 ± 5.5 µM; in assay [3] it was 76.1 ± 4.44 µM; in assay [4], 42.1 ± 5.47 µM; in assay [5], over 100 µM.
Turning to `COc1ccc(-c2oc3c(CC=C(C)C)c(OC(=O)CCCCCCCCBr)cc(O)c3c(=O)c2O)cc1` [Compound 3], the half-inhibitory concentration (IC50) in assay [1], in assay [2], in assay [3], in assay [4] and in assay [5] was over 100 µM throughout.
Take `COc1ccc(-c2oc3c(CC=C(C)C)c(OC(=O)CCCCCCCCCCBr)cc(O)c3c(=O)c2O)cc1` [Compound 4]: the IC50 in assay [1] is over 100 µM; in assay [2], over 100 µM; in assay [3], 76 ± 4.69 µM; in assay [4], over 100 µM; in assay [5] it was over 100 µM.
Regarding `O=c1[nH]cc(F)c(=O)[nH]1` [Compound 5-FU, 5-fluorouracil, reference compound], the IC50 was over 100 µM in assay [1]; 39 ± 1.32 µM in assay [2]; 58.7 ± 2.64 µM in assay [3]; 13.5 ± 2.78 µM in assay [4]; 86.2 ± 7.94 µM in assay [5].
The matching figures for `CCCCC(=O)Oc1cc(O)c2c(=O)c(O)c(-c3ccc(OC)cc3)oc2c1CC=C(C)C` [Compound 5]: 77.2 ± 5.13 µM, 39.9 ± 2.06 µM, 60.2 ± 3.88 µM, 48.9 ± 1.42 µM and 97.8 ± 6.4 µM.
On to `CCCCCCC(=O)Oc1cc(O)c2c(=O)c(O)c(-c3ccc(OC)cc3)oc2c1CC=C(C)C` [Compound 6], for which the IC50 was over 100 µM in assay [1]; 40.6 ± 5.17 µM in assay [2]; over 100 µM in assay [3]; 45.6 ± 3.02 µM in assay [4]; over 100 µM in assay [5].
Take `CCCCCCCCC(=O)Oc1cc(O)c2c(=O)c(O)c(-c3ccc(OC)cc3)oc2c1CC=C(C)C` [Compound 7]: the IC50 in assay [1] was over 100 µM; in assay [2] it was 74.6 ± 4.83 µM; in assay [3], over 100 µM; in assay [4] it was over 100 µM; in assay [5], over 100 µM.
In the case of `CCCCCCCCCCC(=O)Oc1cc(O)c2c(=O)c(O)c(-c3ccc(OC)cc3)oc2c1CC=C(C)C` [Compound 8], the IC50 in assay [1], in assay [2], in assay [3], in assay [4] and in assay [5] was over 100 µM in each case.
Take `COc1cccc2c1C(=O)c1c(O)c3c(c(O)c1C2=O)C[C@@](O)(C(=O)CO)C[C@@H]3O[C@H]1C[C@H](N)[C@H](O)[C@H](C)O1` [DOX, doxorubicin, reference compound]: the IC50 is over 100 µM in assay [1]; 3.23 ± 0.64 µM in assay [2]; 0.24 ± 0.11 µM in assay [3]; 2.44 ± 0.81 µM in assay [4]; 6.88 ± 0.62 µM in assay [5].
In the case of `COc1ccc(-c2oc3c(CC=C(C)C)c(O)cc(O)c3c(=O)c2O)cc1` [ICT, Icaritin], the IC50 in assay [1] is 43.2 ± 3.05 µM; in assay [2] it was 21.8 ± 2.42 µM; in assay [3], 63.6 ± 2.67 µM; in assay [4] it was 25.7 ± 1.89 µM; in assay [5], 43.1 ± 1.93 µM.
Regarding `COc1ccc(-c2oc3c(CC=C(C)C)c(OC(=O)CCCC[P+](c4ccccc4)(c4ccccc4)c4ccccc4)cc(O)c3c(=O)c2O)cc1` [Mito-ICT-1], the IC50 is 47 ± 2.91 µM in assay [1]; 2.85 ± 0.7 µM in assay [2]; 33.6 ± 2.53 µM in assay [3]; 10.7 ± 0.35 µM in assay [4]; 21.1 ± 2.67 µM in assay [5].
On to `COc1ccc(-c2oc3c(CC=C(C)C)c(OC(=O)CCCCCC[P+](c4ccccc4)(c4ccccc4)c4ccccc4)cc(O)c3c(=O)c2O)cc1` [Mito-ICT-2], for which the IC50 in assay [1] worked out at 53.7 ± 5.15 µM; in assay [2], 3.43 ± 0.91 µM; in assay [3] it was 27.8 ± 1.74 µM; in assay [4] it was 23.7 ± 2.24 µM; in assay [5], 10.7 ± 1.09 µM.
The matching figures for `COc1ccc(-c2oc3c(CC=C(C)C)c(OC(=O)CCCCCCCC[P+](c4ccccc4)(c4ccccc4)c4ccccc4)cc(O)c3c(=O)c2O)cc1` [Mito-ICT-3]: 55 ± 3.92 µM, 3.85 ± 0.69 µM, 20.6 ± 2.06 µM, 22.5 ± 1.78 µM and 13.7 ± 0.92 µM.

A word on the IC50: it is the midpoint of a concentration-inhibition curve. Read a low IC50 as inhibition by little substance.

The record behind these values is article PMC12029982, “The Mechanism of a Novel Mitochondrial-Targeted Icaritin Derivative in Regulating Apoptosis of BEL-7402 Cells Based on the SIRT3 and CypD-Mediated ROS/p38 MAPK Signaling Pathway” (Molecules, 2025).
